The subject of one assay is SIV/DeltaB670. Put plainly: Plasma viral loads (real time PCR) after SIV challenge, PMPA + DNA vaccine immunotherapy. On the technique in general: Quantitative PCR measures a nucleic acid by following its amplification.
Assay [1] deals with SIV gag recombinant protein. Put plainly: Proliferation analysis of PBMC. The assay is classed as in vivo, rhesus macaques. The settings on record: proliferative responses to SIV gag. On the procedure: At each time point PBMC were isolated from whole blood by density gradient centrifugation over Ficoll-Hypaque and resuspended in complete RPMI media containing 10% human serum (R10 medium). In 96-well flat bottom plates, 2×10^5 PBMC/well were incubated for 6 days with 0.2 μg/well protein in R10 media. PBMC were stimulated 10 μg/ml of SIV gag recombinant protein (Intracel). Sixteen hours before the end of the assay, each well was pulsed with 1 μCi ^3H-thymidine. Cells were harvested and the isotope incorporation measured by scintillation spectroscopy. All assays were performed in triplicates.
Proliferative responses to SIV gag were measured during combined PMPA+DNA vaccine therapy (weeks 0-28) and after discontinuation of therapy (weeks 30-46 to date).

The subject of assay [2] is SIV-specific CD8+ T cell responses. Description: IFNγ ELISPOT of epitope-specific CD8+ T cell responses in DNA-immunized / SIV-infected macaques. In kind it is in vivo, rhesus macaques. To be noted: for Epitope-specific responses, Group A monkeys, 2 weeks post-SIV infection / Epitope-specific responses, Group A monkeys, Post-immunization, Pre-infection / Epitope-specific responses, Group C monkeys, 2 weeks post-SIV infection: ELISPOT; for Epitope-specific responses, Group A monkeys, 2 weeks post-SIV infection / Epitope-specific responses, Group A monkeys, Post-immunization, Pre-infection: Mamu-A*01 positive macaques immunized before and after infection; for Epitope-specific responses, Group A monkeys, Post-immunization, Pre-infection: after DNA immunization, before SIV infection; for Epitope-specific responses, Group C monkeys, 2 weeks post-SIV infection: Mamu-A*01 positive macaques immunized only after infection; for CD8+ T cell response against peptide after DNA immunization: Group A monkeys, ELISPOT after 1st-4th DNA immunization. On the procedure:
Each monkey received a total of 4 immunizations consisting of 32.0 μg DNA (3.2 μg of each DNA vector) per immunization spaced 4-8 weeks apart. The epitope specificity of the CD8+ T cell responses was determined by ELISPOT following the 1st, 2nd, 3rd or 4th DNA immunization.
ELISPOTs were performed essentially as described (Roy et al. 2000). Briefly, antibody pairs against rhesus monkey IFNγ (Cytech-BV, Amsterdam, The Netherlands) were used to measure the number of r cells that secrete IFNγ. PBMC were cultured at 2 different dilutions in 96 well nitrocellulose filter plates (Millipore) previously coated with anti-cytokine mAbs. ^2 μg/ml of the appropriate MamuA*01 CTL peptide or pepset (Chiron) was then added.
CD8+ T cell responses were measured by ELISPOT. In A*01 positive monkeys, the average cumulative ELISPOT was determined at each timepoint by measuring responses following stimulation with 10 representative epitopes included in the vaccine. In A*01 negative monkeys, cumulative ELISPOT values were determined using gag and tat peptide pools.

The conditions of assay [3]: Table 1 characteristics, from references; cited from earlier work.
Another assay has as its system MHC. To be noted: Table 1 characteristics, from references; cited from earlier work.

`C[C@H](Cn1cnc2c(N)ncnc21)OCP(=O)(O)O` [Group E]: the “Geometric mean virus loads during therapy with DNA vaccines + PMPA (weeks 5-28)” value with SIV/DeltaB670 (weeks 5-28, during therapy) is listed as 7,192 no. of copies of viral RNA/ml plasma. In the assay on SIV/DeltaB670 (weeks 5-28, during therapy with DNA vaccines + PMPA), the “Immunotherapeutic efficacy: number of monkeys maintaining virus loads at < 5000 viral RNA copies/ml plasma, during therapy (weeks 5-28)” value is given as 4/8. Moreover, in the assay with SIV/DeltaB670 (weeks 30-46, after discontinuation), the “Geometric mean virus loads after discontinuation of drug and vaccine therapy (weeks 30-46)” value is 38,428 no. of copies of viral RNA/ml plasma. The “Immunotherapeutic efficacy: number of monkeys maintaining virus loads at < 5000 viral RNA copies/ml plasma, after discontinuation (weeks 30-46)” value in the assay with SIV/DeltaB670 (weeks 30-46, after discontinuation of drug and vaccine therapy) is recorded as 1/8. In addition, the “Average Stimulation Index +/− SE post-therapy (wks 30-46)” value in assay [1] (after discontinuing therapy, weeks 30-46) is given as 1.4 +/− 0.2. For the same compound, the “Average Stimulation Index +/− SE during therapy (wks 0-28)” value in assay [1] (combined PMPA + DNA vaccine therapy, weeks 0-28) was 1.8 +/− 0.5.
Consider CAPPGYALL [Env235-243CL9], for which, in assay [2], the “Epitope-specific responses, Group A monkeys, 2 weeks post-SIV infection” value is recorded as “+/+ (A + response = a minimum of 25 spot forming cells/1 × 10^6 PBMC was detected in at least 1 of the 8 monkeys per group)”; the “Epitope-specific responses, Group A monkeys, Post-immunization, Pre-infection” value (shortened to “Epitope-specific responses … Pre-infection”) is listed as “+/+ (A + response = a minimum of 25 spot forming cells/1 × 10^6 PBMC was detected in at least 1 of the 8 monkeys per group)”; the “Epitope-specific responses, Group C monkeys, 2 weeks post-SIV infection” value was “NA/+ (A + response = a minimum of 25 spot forming cells/1 × 10^6 PBMC was detected in at least 1 of the 8 monkeys per group)”; the “CD8+ T cell response against peptide after DNA immunization” value (from here on “CD8+ T cell response against peptide”) was “Significant responses”.
For CTPYDINQM [Gag181-189CM9], in assay [2], the “Epitope-specific responses, Group A monkeys, 2 weeks post-SIV infection” value is on record as “+/+ (A + response = a minimum of 25 spot forming cells/1 × 10^6 PBMC was detected in at least 1 of the 8 monkeys per group)”; the “Epitope-specific responses … Pre-infection” value was “+/+ (A + response = a minimum of 25 spot forming cells/1 × 10^6 PBMC was detected in at least 1 of the 8 monkeys per group)”; the “Epitope-specific responses, Group C monkeys, 2 weeks post-SIV infection” value was “NA/+ (A + response = a minimum of 25 spot forming cells/1 × 10^6 PBMC was detected in at least 1 of the 8 monkeys per group)”; the “CD8+ T cell response against peptide” value is given as “Significant responses”.
For FRKQNPDIVIYQYMDDLYVG, the immunogenicity entry in assay [3] is given as “epitope, strong”.
As for GSPAIFQYTM [Pol359-365GM10], in assay [2], the “Epitope-specific responses, Group A monkeys, 2 weeks post-SIV infection” value is listed as “+/+ (A + response = a minimum of 25 spot forming cells/1 × 10^6 PBMC was detected in at least 1 of the 8 monkeys per group)”; the “Epitope-specific responses … Pre-infection” value is on record as “+/+ (A + response = a minimum of 25 spot forming cells/1 × 10^6 PBMC was detected in at least 1 of the 8 monkeys per group)”; the “CD8+ T cell response against peptide” value is listed as “Significant responses”.
With ILKEPVHGVY, the immunogenicity result in assay [3] is “MHC, strong”. In the assay on MHC, the “binding affinity to MHC” value is recorded as “CTL epitope, high”.
In the case of LAPVPIPFA [Gag372-380LA9], in assay [2], the “Epitope-specific responses, Group A monkeys, 2 weeks post-SIV infection” value was “+/+ (A + response = a minimum of 25 spot forming cells/1 × 10^6 PBMC was detected in at least 1 of the 8 monkeys per group)”; the “Epitope-specific responses … Pre-infection” value is “+/+ (A + response = a minimum of 25 spot forming cells/1 × 10^6 PBMC was detected in at least 1 of the 8 monkeys per group)”; the “CD8+ T cell response against peptide” value is “Significant responses”.
Take LLWKGEGAV: the immunogenicity entry in assay [3] is “MHC, strong”. Also, the “binding affinity to MHC” value in the assay on MHC was “CTL epitope, high”.
For QVPSLQYLA [Vifl44-152QA9], in assay [2], the “Epitope-specific responses, Group A monkeys, 2 weeks post-SIV infection” value was “+/+ (A + response = a minimum of 25 spot forming cells/1 × 10^6 PBMC was detected in at least 1 of the 8 monkeys per group)”; the “Epitope-specific responses … Pre-infection” value is on record as “+/+ (A + response = a minimum of 25 spot forming cells/1 × 10^6 PBMC was detected in at least 1 of the 8 monkeys per group)”; the “Epitope-specific responses, Group C monkeys, 2 weeks post-SIV infection” value is “NA/+ (A + response = a minimum of 25 spot forming cells/1 × 10^6 PBMC was detected in at least 1 of the 8 monkeys per group)”; the “CD8+ T cell response against peptide” value is given as “Significant responses”.
RIQRGPGRAFVTIGK: the immunogenicity result in assay [3] is given as “epitopes, highly”.
On to STPESANL [Tat28-35SL8], for which, in assay [2], the “Epitope-specific responses, Group A monkeys, 2 weeks post-SIV infection” value is on record as “+/+ (A + response = a minimum of 25 spot forming cells/1 × 10^6 PBMC was detected in at least 1 of the 8 monkeys per group)”; the “Epitope-specific responses … Pre-infection” value is “+/+ (A + response = a minimum of 25 spot forming cells/1 × 10^6 PBMC was detected in at least 1 of the 8 monkeys per group)”; the “Epitope-specific responses, Group C monkeys, 2 weeks post-SIV infection” value is reported as “NA/+ (A + response = a minimum of 25 spot forming cells/1 × 10^6 PBMC was detected in at least 1 of the 8 monkeys per group)”; the “CD8+ T cell response against peptide” value is recorded as “Significant responses”.
As for TVPWPNASL [Env622-630TL9], in assay [2], the “Epitope-specific responses, Group A monkeys, 2 weeks post-SIV infection” value is recorded as “+/+ (A + response = a minimum of 25 spot forming cells/1 × 10^6 PBMC was detected in at least 1 of the 8 monkeys per group)”; the “Epitope-specific responses … Pre-infection” value was “+/+ (A + response = a minimum of 25 spot forming cells/1 × 10^6 PBMC was detected in at least 1 of the 8 monkeys per group)”; the “CD8+ T cell response against peptide” value is reported as “Significant responses”.

Source of the values: US20030124718A1, “Vaccine composition” (priority 2001, published 2003).
